SMILES strings stand for the structures. Counter-ions that a name gives are not always drawn.

For data set [1] the following is noted: rat, in vivo, sc, 5 mg/kg, 4 h. The protocol:
For the bupivacaine hydrochloride liposome prepared in Preparation Example 12 and bupivacaine hydrochloride used alone, a drug dynamics test was conducted. Subcutaneous administration into a back part of a rat was conducted in a dose, in terms of the amount of bupivacaine hydrochloride, as set forth in Table 7. After lapses of 1, 24, 72, 120, and 168 hours from the administration of the bupivacaine hydrochloride liposome composition, and after lapses of 0.5, 4, and 24 hours from the administration of the bupivacaine hydrochloride used alone, back region subcutaneous tissue in the administration site was sampled and subjected to a homogenizing treatment. Subsequently, the homogenized solution was treated, the resultant sample solution was subjected to high performance liquid chromatography determination (UV-visible absorptiometer; measurement wavelength 210 nm), and the concentration of bupivacaine hydrochloride remaining in the back region subcutaneous tissue in the administration site was determined. The retention rate of bupivacaine hydrochloride (used alone) in the administration site was lowered to below 1% in four hours after the administration. […] On the other hand, the bupivacaine hydrochloride liposome gave a profile of sustained release from the administration site, and about 35% of bupivacaine hydrochloride remained on the seventh day from the administration.

The nature of data set [2]: Donepezil Liposome Drug Dynamics 2 (plasma concentration of donepezil hydrochloride). The settings on record: rat, SC 5 mg/kg. The method, then: (Em) of 385 nm was quantified by high performance liquid chromatography using a fluorophotometer.
Furthermore, for comparison, donepezil used alone was administered subcutaneously into a back part of a rat in a dose of 5 mg/kg. For the donepezil used alone, blood was sampled from a tail vein after lapses of 0.5, 1, 5, 10, 30, 120, 480, 1440, and 2880 minutes from the administration. For the liposome compositions, on the other hand, blood was sampled from a tail vein after lapses of 1, 3, 4, 8, 24, 48, 72, 96, 120, 144, 168, 192, 216, 264, 288, 312, and 336 hours from the administration.

For `CCCCN1CCCCC1C(=O)Nc1c(C)cccc1C` (stereo not drawn) [bupivacaine hydrochloride, Bupivacaine hydrochloride], in data set [1], the “retention rate of bupivacaine hydrochloride in the administration site” value was “below 1%”.
For the compound `COc1cc2c(cc1OC)C(=O)C(CC1CCN(Cc3ccccc3)CC1)C2` (stereo not drawn) [donepezil hydrochloride, Donepezil hydrochloride], in data set [2], the “concentration in blood after 48 hours” value is “below the detection limit” and the “time of maximum concentration in blood” value turned out to be 0.5 h.

Values taken from patent US20130202686A1 (priority 2010, published 2013).
